Data on four molecules can be found in ChEMBL document CHEMBL3994622, “Design and synthesis of new RAF kinase-inhibiting antiproliferative quinoline derivatives. Part 2: Diarylurea derivatives” (Eur J Med Chem, 2017).

Common to all, as to assay type: functional
For one test, the system named is K562. Briefly: Growth inhibition of human K562 cells assessed as cell growth at 3 uM incubated for 48 hrs by sulforhodamine B assay relative to control. The note with it: K562, 48 h, read-out: Activity. In general terms: The SRB assay estimates cell density from bound dye.
The next test deals with SK-OV-3. Briefly: Growth inhibition of human SKOV3 cells assessed as cell growth at 0.003 uM incubated for 48 hrs by sulforhodamine B assay relative to control. The note with it: SK-OV-3, 48 h, read-out: Activity.
Test [1] deals with MDA-MB-231. Briefly: Growth inhibition of human MDA-MB-231 cells assessed as cell growth at 3 uM incubated for 48 hrs by sulforhodamine B assay relative to control. The note with it: MDA-MB-231, 48 h, read-out: Activity.
The next test concerns Malme-3M. As to the kind of experiment: Growth inhibition of human MALME-3M cells assessed as cell growth at 0.003 uM incubated for 48 hrs by sulforhodamine B assay relative to control. The settings on record: read-out: Activity.
For another test, the system named is SW-620. As to the kind of experiment: Growth inhibition of human SW620 cells assessed as cell growth at 3 uM incubated for 48 hrs by sulforhodamine B assay relative to control. The settings on record: SW-620, 48 h, read-out: Activity.
A further test relates to NCI-H460. Briefly: Growth inhibition of human NCI-H460 cells assessed as cell growth at 0.3 uM incubated for 48 hrs by sulforhodamine B assay relative to control. The settings on record: NCI-H460, 48 h, read-out: Activity.
Another test relates to OVCAR-8. Briefly: Growth inhibition of human OVCAR8 cells assessed as cell growth at 30 uM incubated for 48 hrs by sulforhodamine B assay relative to control. The note with it: OVCAR-8, 48 h, read-out: Activity.
Another test has as its system BT-549. Briefly: Growth inhibition of human BT549 cells assessed as cell growth at 0.03 uM incubated for 48 hrs by sulforhodamine B assay relative to control. The note with it: BT-549, 48 h, read-out: Activity.
The test system of test [2] is CCRF-CEM. As to the kind of experiment: Growth inhibition of human CCRF-CEM cells assessed as cell growth at 0.03 uM incubated for 48 hrs by sulforhodamine B assay relative to control. The settings on record: read-out: Activity.
Test [3] concerns HCT-15. Briefly: Growth inhibition of human HCT15 cells assessed as cell growth at 3 uM incubated for 48 hrs by sulforhodamine B assay relative to control. The settings on record: HCT-15, 48 h, read-out: Activity.
Another test deals with 786-0. As to the kind of experiment: Growth inhibition of human 786-0 cells assessed as cell growth at 30 uM incubated for 48 hrs by sulforhodamine B assay relative to control. The note with it: 786-0, 48 h, read-out: Activity.
Test [4] concerns CCRF-CEM. Briefly: Growth inhibition of human CCRF-CEM cells assessed as cell growth at 0.003 uM incubated for 48 hrs by sulforhodamine B assay relative to control. The settings on record: read-out: Activity.
The test system of a further test is HT-29. As to the kind of experiment: Growth inhibition of human HT-29 cells assessed as cell growth at 3 uM incubated for 48 hrs by sulforhodamine B assay relative to control. The note with it: HT-29, 48 h, read-out: Activity.
The test system of another test is SR. Briefly: Growth inhibition of human SR cells assessed as cell growth at 3 uM incubated for 48 hrs by sulforhodamine B assay relative to control. The settings on record: read-out: Activity.
The next test has as its system HOP-92. As to the kind of experiment: Growth inhibition of human HOP92 cells assessed as cell growth at 3 uM incubated for 48 hrs by sulforhodamine B assay relative to control. The settings on record: HOP-92, 48 h, read-out: Activity.
Test [5] has as its system COLO 205. Briefly: Growth inhibition of human COLO205 cells assessed as cell growth at 3 uM incubated for 48 hrs by sulforhodamine B assay relative to control. The settings on record: COLO 205, 48 h, read-out: Activity.
For the next test, the system named is KM12. Briefly: Growth inhibition of human KM12 cells assessed as cell growth at 3 uM incubated for 48 hrs by sulforhodamine B assay relative to control. The settings on record: KM12, 48 h, read-out: Activity.
The test system of test [6] is RPMI-8226. Briefly: Growth inhibition of human RPMI8226 cells assessed as cell growth at 0.3 uM incubated for 48 hrs by sulforhodamine B assay relative to control. The note with it: RPMI-8226, 48 h, read-out: Activity.
The subject of the next test is SK-MEL-28. Briefly: Growth inhibition of human SK-MEL-28 cells assessed as cell growth at 3 uM incubated for 48 hrs by sulforhodamine B assay relative to control. The settings on record: SK-MEL-28, 48 h, read-out: Activity.
The test system of test [7] is SF-539. Briefly: Growth inhibition of human SF539 cells assessed as cell growth at 0.3 uM incubated for 48 hrs by sulforhodamine B assay relative to control. The note with it: SF-539, 48 h, read-out: Activity.
A further test has as its system SF-295. As to the kind of experiment: Growth inhibition of human SF295 cells assessed as cell growth at 1 uM incubated for 48 hrs by sulforhodamine B assay relative to control. The settings on record: SF-295, 48 h, read-out: Activity.
The next test concerns UACC-257. As to the kind of experiment: Growth inhibition of human UACC257 cells assessed as cell growth at 1 uM incubated for 48 hrs by sulforhodamine B assay relative to control. The settings on record: UACC-257, 48 h, read-out: Activity.
Test [8] deals with SF-539. As to the kind of experiment: Growth inhibition of human SF539 cells assessed as cell growth at 1 uM incubated for 48 hrs by sulforhodamine B assay relative to control. The settings on record: SF-539, 48 h, read-out: Activity.
The next test concerns IGROV-1. As to the kind of experiment: Growth inhibition of human IGROV1 cells assessed as cell growth at 0.1 uM incubated for 48 hrs by sulforhodamine B assay relative to control. The note with it: IGROV-1, 48 h, read-out: Activity.
Test [9] deals with NCI-H522. Briefly: Growth inhibition of human NCI-H522 cells assessed as cell growth at 0.01 uM incubated for 48 hrs by sulforhodamine B assay relative to control. The note with it: NCI-H522, 48 h, read-out: Activity.
In the next test the test system is CAKI-1. Briefly: Growth inhibition of human Caki1 cells assessed as cell growth at 10 uM incubated for 48 hrs by sulforhodamine B assay relative to control. The settings on record: CAKI-1, 48 h, read-out: Activity.
Test [10] concerns HCT-15. As to the kind of experiment: Growth inhibition of human HCT15 cells assessed as cell growth at 1 uM incubated for 48 hrs by sulforhodamine B assay relative to control. The note with it: HCT-15, 48 h, read-out: Activity.
Test [11] deals with MDA-MB-231. Briefly: Growth inhibition of human MDA-MB-231 cells assessed as cell growth at 0.1 uM incubated for 48 hrs by sulforhodamine B assay relative to control. The settings on record: MDA-MB-231, 48 h, read-out: Activity.
In a further test the test system is EKVX. As to the kind of experiment: Growth inhibition of human EKVX cells assessed as cell growth at 1 uM incubated for 48 hrs by sulforhodamine B assay relative to control. The note with it: read-out: Activity.
The test system of test [12] is NCI-H522. Briefly: Growth inhibition of human NCI-H522 cells assessed as cell growth at 0.1 uM incubated for 48 hrs by sulforhodamine B assay relative to control. The note with it: NCI-H522, 48 h, read-out: Activity.
In test [13] the test system is COLO 205. As to the kind of experiment: Growth inhibition of human COLO205 cells assessed as cell growth at 100 uM incubated for 48 hrs by sulforhodamine B assay relative to control. The settings on record: COLO 205, 48 h, read-out: Activity.
Test [14] relates to RPMI-8226. Briefly: Growth inhibition of human RPMI8226 cells assessed as cell growth at 10 uM incubated for 48 hrs by sulforhodamine B assay relative to control. The note with it: RPMI-8226, 48 h, read-out: Activity.
The subject of test [15] is RPMI-8226. As to the kind of experiment: Growth inhibition of human RPMI8226 cells assessed as cell growth at 1 uM incubated for 48 hrs by sulforhodamine B assay relative to control. The settings on record: RPMI-8226, 48 h, read-out: Activity.
The subject of a further test is OVCAR-3. As to the kind of experiment: Growth inhibition of human OVCAR3 cells assessed as cell growth at 1 uM incubated for 48 hrs by sulforhodamine B assay relative to control. The note with it: OVCAR-3, 48 h, read-out: Activity.
The subject of the next test is OVCAR-4. As to the kind of experiment: Growth inhibition of human OVCAR4 cells assessed as cell growth at 100 uM incubated for 48 hrs by sulforhodamine B assay relative to control. The settings on record: OVCAR-4, 48 h, read-out: Activity.

With `Cc1nc2cc(O)c(O)cc2cc1Oc1ccc(NC(=O)Nc2ccc(Cl)c(Cl)c2)cc1`, the growth at 3 µM in the test with K562 came out at 76%; in the test with MDA-MB-231 [1], 41%; in the test on SW-620, 57%; in the test on HCT-15 [3], 62%; with HT-29, 98%; in the test with SR, 28%. The growth at 3 µM worked out at 48% in the test with HOP-92, 85% in the test with COLO 205 [5], 95% in the test on KM12 and 92% with SK-MEL-28. Besides, the growth at 0.003 µM is 104% with SK-OV-3, 99% in the test on Malme-3M and 97% in the test on CCRF-CEM [4]. Moreover, the growth at 0.3 µM in the test on NCI-H460 came out at 99%; in the test with RPMI-8226 [6] it was 97%; in the test on SF-539 [7], 99%. The growth at 30 µM with OVCAR-8 was 1%; in the test with 786-0 it was -31%. Besides, the growth at 0.03 µM stood at 94% in the test with BT-549 and 95% in the test on CCRF-CEM [2].
As to `COc1cc2cc(Oc3ccc(NC(=O)Nc4ccc(Cl)c(C(F)(F)F)c4)cc3)c(C)nc2cc1OC`, the growth at 3 µM is 12% with K562; -29% with MDA-MB-231 [1]; 15% with SW-620; 16% with HCT-15 [3]; 8% with HT-29; -9% with SR. In addition, the growth at 3 µM with HOP-92 is -21%; in the test on COLO 205 [5] it was -67%; in the test with KM12 it was 7%; in the test with SK-MEL-28, 27%. Moreover, the figures for the growth at 0.003 µM in the test with SK-OV-3, in the test on Malme-3M and in the test on CCRF-CEM [4] were 101%, 98% and 111%, respectively. Moreover, the values for the growth at 0.3 µM in the test on NCI-H460, in the test with RPMI-8226 [6] and with SF-539 [7] were 100%, 85% and 107%, respectively. Further, the results for the growth at 30 µM with OVCAR-8 and in the test with 786-0 were -32% and -71%, respectively. In addition, the growth at 0.03 µM in the test with BT-549 amounted to 83%; in the test with CCRF-CEM [2], 103%.
For `COc1cc2cc(Oc3ccc(NC(=O)Nc4ccc(Cl)c(Cl)c4)cc3)c(C)nc2cc1OC`, the growth at 1 µM in the test on SF-295 was found to be 80%; in the test with UACC-257 it was 92%; in the test on SF-539 [8] it was 103%; in the test with HCT-15 [10] it was 88%; with EKVX, 81%; in the test with RPMI-8226 [15] it was 69%. Moreover, the growth at 1 µM in the test on OVCAR-3 worked out at 94%. Also, the growth at 0.1 µM turned out to be 112% in the test on IGROV-1, 92% with MDA-MB-231 [11] and 99% in the test with NCI-H522 [12]. Also, in the test on NCI-H522 [9], the growth at 0.01 µM was 99%. Moreover, the growth at 10 µM in the test on CAKI-1 was -18%; with RPMI-8226 [14], -22%. The growth at 100 µM with COLO 205 [13] was -100%; with OVCAR-4, -85%.
Turning to `COc1cc2cc(Oc3ccc(NC(=O)Nc4cc(C(F)(F)F)cc(C(F)(F)F)c4)cc3)c(C)nc2cc1OC`, the growth at 1 µM in the test on SF-295 was 31%; in the test on UACC-257, 107%; in the test with SF-539 [8] it was 73%; in the test on HCT-15 [10], 41%; with EKVX, 50%; with RPMI-8226 [15], 23%. Also, the growth at 1 µM with OVCAR-3 is 27%. Besides, the growth at 0.1 µM in the test on IGROV-1 came to 95%; in the test on MDA-MB-231 [11] it was 98%; with NCI-H522 [12] it was 77%. The growth at 0.01 µM with NCI-H522 [9] was 92%. The growth at 10 µM is -26% in the test with CAKI-1 and -8% in the test with RPMI-8226 [14]. The growth at 100 µM was -79% with COLO 205 [13] and -52% with OVCAR-4.
